# Measurements reported in ChEMBL document CHEMBL1201862, “PubChem BioAssay data set” (2004).
# Several values for one entry are separate records, joined by “and”; a condition that tells them apart may be missing. Equal values may be shown once. Activity calls are given as the source filed them.
# Columns and labels:
# [1] = biological target: T1, Zinc finger protein mex-5 (Caenorhabditis elegans, UniProt Q9XUB2); test: potency of MEX-5 RNA-binding blockers – biochemical, C. elegans, fluorescence polarization, dose response (AID 1960)
# T1 sequence (Q9XUB2 whole entry): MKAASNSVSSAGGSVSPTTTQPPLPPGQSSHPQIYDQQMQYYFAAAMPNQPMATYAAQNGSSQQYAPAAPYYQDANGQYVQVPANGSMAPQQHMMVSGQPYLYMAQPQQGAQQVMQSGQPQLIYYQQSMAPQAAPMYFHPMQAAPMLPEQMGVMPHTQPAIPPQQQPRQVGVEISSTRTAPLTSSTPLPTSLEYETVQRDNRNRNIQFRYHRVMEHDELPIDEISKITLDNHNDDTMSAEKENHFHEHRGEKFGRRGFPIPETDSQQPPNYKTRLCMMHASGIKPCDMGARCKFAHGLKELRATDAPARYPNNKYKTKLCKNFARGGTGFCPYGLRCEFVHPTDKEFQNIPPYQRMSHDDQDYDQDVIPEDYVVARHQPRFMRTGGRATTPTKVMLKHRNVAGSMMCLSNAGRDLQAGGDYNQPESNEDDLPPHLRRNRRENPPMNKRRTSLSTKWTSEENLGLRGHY
# [2] = biological target: T2, RNA-binding protein pos-1 (Caenorhabditis elegans, UniProt G5EF15); test: disruptors of C. elegans POS-1 RNA interaction – biochemical, fluorescence polarization, dose response (AID 1964);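 further: purified POS-1 fused to maltose binding protein made in E. coli; potency of compounds blocking POS-1 binding to fluorescent RNA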
# T2 sequence (G5EF15 whole entry): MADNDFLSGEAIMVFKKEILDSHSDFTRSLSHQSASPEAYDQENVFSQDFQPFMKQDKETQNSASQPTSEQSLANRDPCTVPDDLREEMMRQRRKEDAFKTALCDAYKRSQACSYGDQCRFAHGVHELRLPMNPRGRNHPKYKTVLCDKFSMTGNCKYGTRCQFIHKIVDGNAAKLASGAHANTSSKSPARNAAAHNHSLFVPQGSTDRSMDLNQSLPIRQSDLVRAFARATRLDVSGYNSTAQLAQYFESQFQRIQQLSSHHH
# Cytochrome P450 2C9 = Cytochrome P450 2C9 (Homo sapiens, UniProt P11712)
# Cytochrome P450 3A4 = Cytochrome P450 3A4 (Homo sapiens, UniProt P08684);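 further: CYP3A4 tested as one member of a cytochrome P450 panel screen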
# H9c2 = test: cells; type: functional, cell-based; settings: Rattus norvegicus, H9c2, Myocardium;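 further: confirmatory concentration-response retest of ultra-high-throughput screening hits for modulation of myocardial damage; cell death induced by hydrogen peroxide oxidative stress; compound pretreatment for 60 min then peroxide exposure for 2 h; potency is for protecting the cells against peroxide damage rather than for killing them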
# Streptococcus = test: GAS UMAA2166 growth inhibition – luminescence, BacTiterGlo, counter-screen for streptokinase expression inhibitor project, dose response (AID 1915); type: functional, organism-based;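 further: potency for reduction of bacterial viability or growth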
# [3] = test system: Streptococcus sp. 'group A'; test: Streptococcus pyogenes SK(-)GAS viability under kanamycin – luminescence, BacTiterGlo, confirmation, counter-screen for streptokinase expression inhibitor project, dose response (AID 1900); type: functional, organism-based
# Streptokinase A = biological target: T3, Streptokinase A (Streptococcus pyogenes serotype M1, UniProt P10520); test: viability-normalized secreted streptokinase activity reduction – plasminogen activation absorbance, OD405, dose response (AID 1914); type: functional, Streptococcus pyogenes M1 GAS;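 further: secreted streptokinase activity via plasminogen activation per viability signal from cell pellet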
# T3 sequence (P10520 whole entry): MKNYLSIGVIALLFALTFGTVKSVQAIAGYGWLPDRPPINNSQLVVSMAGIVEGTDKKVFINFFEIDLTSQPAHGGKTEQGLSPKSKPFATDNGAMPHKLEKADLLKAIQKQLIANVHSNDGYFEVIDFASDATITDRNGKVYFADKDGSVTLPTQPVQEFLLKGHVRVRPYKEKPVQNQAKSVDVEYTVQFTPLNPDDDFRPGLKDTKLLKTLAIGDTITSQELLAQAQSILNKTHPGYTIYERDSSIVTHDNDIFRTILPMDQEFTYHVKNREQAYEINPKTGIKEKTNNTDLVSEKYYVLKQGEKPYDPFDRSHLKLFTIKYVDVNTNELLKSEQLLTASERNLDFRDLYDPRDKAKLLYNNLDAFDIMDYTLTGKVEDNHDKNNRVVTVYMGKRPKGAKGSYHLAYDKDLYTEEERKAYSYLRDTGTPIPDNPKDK
# Cytochrome P450 2C19 = Cytochrome P450 2C19 (Homo sapiens, UniProt P33261); test: Cytochrome panel assay with activity outcomes. Panel member name: p450-cyp2c19 Compounds with AC50 equal or less than 10 uM are considered active; type: functional; settings: read-out: AC50
# INS1 = test: INS-1E survival protection against cytokine death – cell-based, luminescence, retest, dose response (AID 449756); type: functional; settings: Rattus norvegicus;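 further: cell death triggered by IL-1 beta plus TNF-alpha plus IFN-gamma mixture; protective hits raise ATP signal compared with cytokine alone wells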
# Sequence of Cytochrome P450 2C9 (P11712 whole entry): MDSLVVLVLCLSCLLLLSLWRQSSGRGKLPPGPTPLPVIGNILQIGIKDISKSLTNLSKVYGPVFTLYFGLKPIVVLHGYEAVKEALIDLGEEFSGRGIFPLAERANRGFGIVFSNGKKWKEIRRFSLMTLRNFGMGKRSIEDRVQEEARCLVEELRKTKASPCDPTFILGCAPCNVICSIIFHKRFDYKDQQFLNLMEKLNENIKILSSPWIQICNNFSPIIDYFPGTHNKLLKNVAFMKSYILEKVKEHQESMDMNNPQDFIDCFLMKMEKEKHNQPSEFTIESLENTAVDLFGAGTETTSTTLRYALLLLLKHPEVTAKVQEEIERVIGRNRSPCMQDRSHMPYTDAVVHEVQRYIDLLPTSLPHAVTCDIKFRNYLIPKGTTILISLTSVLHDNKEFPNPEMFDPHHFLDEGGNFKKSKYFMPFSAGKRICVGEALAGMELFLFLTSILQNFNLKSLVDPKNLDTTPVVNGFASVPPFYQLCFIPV
# Sequence of Cytochrome P450 2C19 (P33261 whole entry): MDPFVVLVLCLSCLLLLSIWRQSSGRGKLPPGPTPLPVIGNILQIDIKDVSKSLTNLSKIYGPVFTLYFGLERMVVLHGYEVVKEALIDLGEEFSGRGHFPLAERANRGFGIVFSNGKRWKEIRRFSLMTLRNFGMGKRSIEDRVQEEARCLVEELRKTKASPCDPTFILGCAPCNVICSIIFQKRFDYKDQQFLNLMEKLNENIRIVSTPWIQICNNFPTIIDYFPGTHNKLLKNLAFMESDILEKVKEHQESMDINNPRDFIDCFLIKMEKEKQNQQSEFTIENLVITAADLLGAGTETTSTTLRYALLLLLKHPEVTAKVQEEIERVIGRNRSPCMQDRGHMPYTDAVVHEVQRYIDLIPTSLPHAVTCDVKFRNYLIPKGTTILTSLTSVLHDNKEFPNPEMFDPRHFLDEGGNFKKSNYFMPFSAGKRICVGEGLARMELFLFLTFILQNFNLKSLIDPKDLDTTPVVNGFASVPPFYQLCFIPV
# Sequence of Cytochrome P450 3A4 (P08684 whole entry): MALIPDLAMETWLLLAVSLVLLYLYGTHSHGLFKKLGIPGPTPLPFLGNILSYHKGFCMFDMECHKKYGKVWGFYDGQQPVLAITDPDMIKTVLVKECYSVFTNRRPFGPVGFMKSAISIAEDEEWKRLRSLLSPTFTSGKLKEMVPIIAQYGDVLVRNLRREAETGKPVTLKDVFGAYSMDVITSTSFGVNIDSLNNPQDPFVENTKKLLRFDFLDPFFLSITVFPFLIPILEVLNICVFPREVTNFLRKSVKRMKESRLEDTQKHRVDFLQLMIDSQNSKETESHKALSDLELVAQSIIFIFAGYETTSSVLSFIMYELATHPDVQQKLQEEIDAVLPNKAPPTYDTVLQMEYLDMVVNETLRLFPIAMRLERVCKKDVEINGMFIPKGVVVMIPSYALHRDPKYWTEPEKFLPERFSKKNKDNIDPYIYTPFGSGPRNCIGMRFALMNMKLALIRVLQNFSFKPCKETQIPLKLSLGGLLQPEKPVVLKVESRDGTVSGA
smiles,measurement,setting,value
CC(C)COc1ccc(/C=C2/Sc3ccccc3C2=O)cc1,EC50,[1],> 300 µM (not active)
same,EC50,[2],> 300 µM (not active)
COC(=O)[C@H]1[C@H](c2ccccc2)C(=O)[C@@]2(O)c3ccccc3O[C@@]12c1ccccc1,AC50,Cytochrome P450 2C9,6.31 µM (inconclusive)
same,AC50,Cytochrome P450 3A4,3.16 µM (inconclusive)
O=C(Nc1cccc(-c2nc3cccnc3s2)c1)c1ccco1,IC50,H9c2,> 79 µM (inactive)
Cc1cc(Oc2cnn(C(C)(C)C)c(=O)c2Cl)cc(C(C)C)c1,EC50,Streptococcus,12.6 µM (active)
same,EC50,[3],6.31 µM (active)
same,EC50,Streptokinase A,9.54 µM (active)
CC(=O)Nc1ccc(S(=O)(=O)NCC2CCC(C(=O)N3CCN(c4ccccn4)CC3)CC2)cc1 (configuration not stated),AC50,Cytochrome P450 2C9,3.98 µM (inconclusive)
same,AC50,Cytochrome P450 2C19,10 µM (inconclusive)
O=C1c2ccccc2CC1(Cc1ccccc1)Cc1ccccc1,EC50,Streptococcus,> 150 µM (not active)
same,EC50,[3],6.04 µM (active)
same,EC50,Streptokinase A,12.9 µM (active)
C/C(CCN1CCc2nc(-c3ccccc3)c(-c3ccccc3)cc2C1)=N\O[C@@H](C)c1cn([C@H](CO)Cc2ccccc2)nn1,AC50,Cytochrome P450 3A4,3.98 µM (inconclusive) and 3.16 µM (inconclusive)
CCOc1ccc(NC(=O)c2cc3c(=O)n(C)c4ccccc4c3n2C)cc1,IC50,H9c2,> 79 µM (inactive)
Cc1nc2cnc(N(C)C)nc2n(CCc2ccccc2)c1=O,AC50,Cytochrome P450 3A4,31.6 µM (inconclusive)
NCC[Se][Se]CCN,AC50,Cytochrome P450 2C9,0.316 µM (inconclusive)
O=c1cnc2cnc(Nc3ccccc3)nc2n1Cc1ccc(F)cc1,AC50,Cytochrome P450 2C9,7.94 µM (inconclusive)
c1ccc2sc(NC3=NCN(C4CCCCCC4)CN3)nc2c1,AC50,Cytochrome P450 2C9,39.8 µM (inconclusive)
same,AC50,Cytochrome P450 3A4,7.94 µM (inconclusive)
O=S(=O)([N-]c1nc2ccccc2nc1-[n+]1ccc(CCCc2ccccc2)cc1)c1cccs1,EC50,[1],34 µM (active)
same,EC50,[2],35.4 µM (active)
CC(C)CC(=O)Nc1ccc2c(c1)oc1ccccc12,AC50,Cytochrome P450 2C9,8.91 µM (inconclusive)
same,AC50,Cytochrome P450 2C19,2.82 µM (inconclusive)
CCCn1nc(C(=O)OCC(=O)c2c(N)n(C)c(=O)n(C)c2=O)c2ccccc2c1=O,IC50,H9c2,17.1 µM (active)
CCOC(=O)c1c(NC(C)=O)sc2c(OC)cccc12,AC50,Cytochrome P450 2C9,5.01 µM (inconclusive)
COc1ccc(CC(=O)N(Cc2ccccc2)c2ccccc2)cc1S(=O)(=O)N1CCOCC1,IC50,H9c2,70.9 µM (inactive)
CC(C)CN1CC[C@@]2(CCCN(S(=O)(=O)c3ccccc3)C2)C1,AC50,Cytochrome P450 3A4,5.01 µM (inconclusive)
Cc1cnc(CNc2ncncc2-c2ccccc2C#N)cn1,AC50,Cytochrome P450 3A4,12.6 µM (inconclusive)
CCCCn1cc[n+](C2=C([N-]S(=O)(=O)c3ccc(Cl)cc3)C(=O)c3ccccc3C2=O)c1,AC50,INS1,4.18 µM (active)
OC(CNC1CCCCC1)COCCOc1ccc(Br)cc1 (configuration not stated),AC50,INS1,61.9 µM (active)
O=C(CCc1nc(O)c2ccccc2n1)OCCOc1ccc(Cl)cc1,IC50,H9c2,> 79 µM (inactive)
O=C(OCC(=O)c1cccs1)c1cccc(C(=O)OCC(=O)c2cccs2)n1,AC50,Cytochrome P450 3A4,35.5 µM (inconclusive)
CCc1cc[n+](C2=Nc3ccccc3[N-]C2=C(C#N)C#N)cc1,AC50,Cytochrome P450 2C9,14.1 µM (inconclusive)
same,AC50,Cytochrome P450 2C19,25.1 µM (inconclusive)
same,AC50,Cytochrome P450 3A4,15.8 µM (inconclusive)
O=C(CN1CCN(S(=O)(=O)c2cc(Cl)ccc2Cl)CC1)c1ccc(O)c(O)c1,IC50,H9c2,> 79 µM (inactive)
N#Cc1cc(NC(=O)c2ccc(F)cc2)c(O)n2c1nc1ccccc12,EC50,[1],35 µM (active)
same,EC50,[2],21.7 µM (inconclusive)
FC(F)(F)c1ccccc1-c1ccc2ncnc(N3CCOCC3)c2c1,AC50,Cytochrome P450 3A4,5.01 µM (inconclusive)
CC1Cc2ccccc2N1C(=O)Cn1cc([N+](=O)[O-])cn1 (configuration not stated),AC50,Cytochrome P450 2C9,39.8 µM (inconclusive)
same,AC50,Cytochrome P450 2C19,11.2 µM (inconclusive)
Cc1cc(-c2ccccc2)nc(O)c1S(=O)(=O)c1ccc(Cl)cc1,AC50,Cytochrome P450 2C9,3.55 µM (inconclusive)
same,AC50,Cytochrome P450 2C19,5.62 µM (inconclusive)
CCc1nnc(NC(=O)c2ccc(S(=O)(=O)N(C)c3ccccc3)cc2)o1,EC50,Streptococcus,8.72 µM (active)
same,EC50,[3],7.35 µM (active)
same,EC50,Streptokinase A,> 150 µM (not active)
COc1ccc2nc(O)c(CNc3ccc(C)c(C)c3)cc2c1,IC50,H9c2,> 79 µM (inactive)
Cc1cccc(C)c1OC(=O)C(c1ccccc1)c1ccccc1,EC50,Streptococcus,> 150 µM (not active)
same,EC50,[3],9.04 µM (active)
same,EC50,Streptokinase A,17 µM (active)
CCOC(=O)c1cc(-c2nnc(-c3cc(OC)c(OC)c(OC)c3)o2)c(C)nc1C,IC50,H9c2,> 79 µM (inactive)
O=C(Cc1ccc(Br)cc1)OCC(=O)c1ccc2c(c1)OCCO2,AC50,Cytochrome P450 2C9,7.94 µM (inconclusive)
COC(=O)c1c(NC(=O)c2ccn(C)n2)sc2c1CCC2,EC50,Streptococcus,> 150 µM (not active)
same,EC50,[3],> 150 µM (not active)
same,EC50,Streptokinase A,> 150 µM (not active)
COc1ccc(-c2nc3cnc(N4CCN(C)CC4)nc3n(CCC#N)c2=O)cc1,AC50,Cytochrome P450 3A4,39.8 µM (inconclusive)
CCOC(=O)Cc1cc(O)n2ncc(-c3cccc(Br)c3)c2n1,EC50,Streptococcus,18 µM (active)
same,EC50,[3],2.14 µM (active)
same,EC50,Streptokinase A,> 150 µM (not active)
COCCn1c(=O)cnc2cnc(OCc3ccccc3)nc21,AC50,Cytochrome P450 3A4,20 µM (inconclusive)
COC(=O)c1ccc(OCC(=O)Nc2ccccc2C(=O)NC2CC2)cc1,IC50,H9c2,> 79 µM (inactive)
CC(=O)c1cccc(NC(=O)C(C)OC(=O)CCc2nc(O)c3ccccc3n2)c1 (configuration not stated),IC50,H9c2,15.7 µM (active)
Cc1cccc(N2C(S)=NC(=Nc3c(C)cccc3C)C23CCOC(C)(C)C3)c1 (configuration not stated),AC50,INS1,3.8 µM (active)
O=C(CN1C(=O)C2CC=CCC2C1=O)Nc1nc(-c2ccc(F)cc2)cs1 (configuration not stated),IC50,H9c2,> 79 µM (inactive)
C=C[C@H](CC(C)C)N(Cc1ccccc1)S(=O)(=O)N(Cc1ccccc1)[C@@H](C=C)CC(C)C,AC50,INS1,5.4 µM (active)
COc1ccc(/C=N/N=C2/CC(C)(C)Cc3nnc(O)cc32)cc1,EC50,[1],38.1 µM (active)
same,EC50,[2],41.4 µM (active)
C/C(=N/NC(=O)c1cccs1)c1cccc(NC(=O)C2CC2)c1,IC50,H9c2,> 79 µM (inactive)
Clc1nc2sccn2c1/C=N/n1cnc2ccccc21,IC50,H9c2,> 79 µM (inactive)
C/C(=N\Nc1nc2ccc(Cl)cc2o1)c1ccccc1,EC50,Streptococcus,> 150 µM (not active)
same,EC50,[3],6.79 µM (active)
same,EC50,Streptokinase A,> 150 µM (not active)
N[C@@H](C(=O)O)[C@H](CC(=O)O)c1ccc(Cl)cc1,AC50,Cytochrome P450 2C9,39.8 µM (inconclusive)
same,AC50,Cytochrome P450 2C19,25.1 µM (inconclusive)
CN(C)c1ccccc1CN1CCCN(Cc2ccccc2N(C)C)C1c1ccncc1,AC50,Cytochrome P450 3A4,3.16 µM (inconclusive)
CN1CCN(C2=Cc3ccccc3Oc3ccc(Cl)cc32)CC1,AC50,Cytochrome P450 3A4,31.6 µM (inconclusive)
